{"source": "patent US20150351390A1", "about": "“COMPOSITIONS AND METHODS FOR AUXIN-ANALOG CONJUGATION” (PIONEER HI-BRED INTERNATIONAL, INC., priority 2012, published 2015)", "key": {"Soybean seeds": {"tested_on": "Soybean seeds", "assay": "Phytotoxicity evaluation during soybean germination", "format": "in vivo", "conditions": "1 μM in germination media, 10 days", "description": "To evaluate the effect of synthetic auxin conjugates in plants, 2,4-D-Asp, 2,4-D-Glu, dicamba-Asp, and dicamba-Glu were synthesized (Irvine Chemistry Laboratory, Anaheim, Calif.) and tested for auxin effects during soybean germination.\nAsp and Glu conjugates of 2,4-D and dicamba were dissolved in a small quantity of Na2CO3 and ethanol, respectively, diluted in ddH2O to obtain 10 mM stock solution, and filter sterilized. Soybean seeds of a Pioneer elite germplasm were sterilized with chlorine gas as following: a) two layers of seeds were placed in a 100×25 mm plastic Petri dish; b) in an exhaust fume hood, seeds were placed into a glass desiccator with a 250 mL beaker containing 100 mL bleach (5% NaOC1) and 3.5 mL 12N HCl was slowly added to the beaker; c) the lid was sealed closed on the desiccator and the seeds sterilized for at least 24 hr.\nSterilized soybean seeds were then imbibed in ddH2O under sterile conditions at 25° C. for 24 hours before germination test. For germination test, 6-8 imbibed seeds were placed on a 100×25 mm deep Petri dish plate containing 50 ml germination media supplemented with or without auxin herbicide conjugates. 1 L seed germination media contains 3.21 g GAMBORG B-5 basal medium (PhytoTech), 20 g sucrose, 5 g tissue culture agar, and is pH adjusted to 5.7. Media was autoclaved at 121° C. for 25 min and cooled to 60° C. before the addition of auxin conjugates. Germination was carried out in a Percival growth chamber at 25° C. under 18 hr light and 6 hr dark cycle at 90 to 150 μE/m2/s and grown for 10 days."}, "[1]": {"tested_on": "Transgenic Arabidopsis lines overexpressing SEQ ID NO:3", "assay": "Root growth inhibition by 2,4-D, transgenic Arabidopsis", "format": "in vivo, Arabidopsis thaliana", "description": "Arabidopsis (Arabidopsis thaliana) expressing GH3 genes were produced using floral dip methods of Agrobacterium mediated transformation (Clough S J and Bent A F, 1998, Plant J. 16:735-43; Chung M. H., Chen M. K., Pan S. M. 2000. Transgenic Res. 9: 471-476; Weigel D. and Glazebrook J. 2006. In Planta Transformation of Arabidopsis. Cold Spring Harb. Protoc. 4668 3). Briefly, Arabidopsis (Col-0) plants were grown in soil in pots. The first inflorescence shoots were removed as soon as they emerged. Plants were ready for transformation when the secondary inflorescence shoots were about 3 inches tall. Agrobacterium carrying a suitable binary vector were cultured in 5 mL LB medium at 28° C. with shaking at 200 rpm for two days. 1 mL of the culture was then inoculated into 200 ml fresh LB media and incubated again with vigorous agitation for an additional 20-24 hours at 28° C. The Agrobacterium culture was then subjected to centrifugation at 6000 rpm in a GSA rotor (or equivalent) for 10 minutes. The pellet was resuspended in 20-100 mL of spraying medium containing 5% (wt/v) sucrose and 0.01-0.2% (v/v) Silwet L-77. The Agrobacterium suspension was transferred into a hand-held sprayer for spraying onto inflorescences of the transformation-ready Arabidopsis plants. The sprayed plants were covered with a humidity dome for 24 hours before the cover was removed for growth under normal growing conditions. Seeds were harvested. Screening of transformants was performed under sterile conditions. Surface sterilized seeds were placed onto MS-Agar plates (Phyto Technology labs Prod. No. M519) containing appropriate selective antibiotics (kanamycin 50 mg/L, hygromycin 20 mg/L, or bialaphos 10 mg/L). Anti-Agrobacteirum antibiotic timentin was also included in the media. Plates were cultured at 21° C. at 16 hr light for 7-14 days. Transgenic events harboring GH3 genes were germinated and transferred to soil pots in the greenhouse for evaluation of herbicide tolerance.\nA selectable marker gene used to facilitate Arabidopsis transformation was a chimeric gene composed of the 35S promoter from Cauliflower Mosaic Virus (Odell et al. 1985. Nature 313:810-812), the bar gene from Streptomyces hygroscopicus (Thompson et al., 1987. EMBO J. 6:2519-2523), and the 3′UBQ14 terminator region from Arabidopsis (Callis et al., 1995. Genetics 139 (2), 921-939). Another visual selectable marker gene used to facilitate Arabidopsis transformation was a chimeric gene composed of the UBQ promoter from soybean (Xing et al., 2010. Plant Biotechnology Journal 8:772-782), the YFP coding sequence, and the 3′ region of the nopaline synthase gene from the T-DNA of the Ti plasmid of Agrobacterium tumefaciens. Bialophos was used as the selection agent during the transformation process. GH3 genes were expressed with a constitutive promoter, for example, the Arabidopsis UBQ10 promoter (Norris et al., 1993. Plant Mol Biol 21:895-906) or UBQ3 promoter (Norris et al., 1993. Plant Mol Biol 21:895-906) for strong or moderate expression, a GH3 coding sequence, and the 3′ terminator region of the French bean phaseolin gene (Sun et al., 1981. Nature 289:37-41; Slightom et al., 1983. Proc. Natl. Acad. Sci. U.S.A. 80 (7), 1897-1901)\nSeeds of Arabidopsis ecotype Columbia (Col-0) and GH3 transgenic events were surface sterilized with 70% (v/v) ethanol for 5 minutes and 10% (v/v) bleach for 15 minutes. After being washed three times with distilled water, the seeds were incubated at 4° C. for 4 days. The seeds were then germinated on 1× Murashige and Skoog (MS) medium with a pH of 5.7, 3% (w/v) sucrose, and 0.8% (w/v) agar. After incubation for 3.5 days, the seedlings were transferred to the basal medium containing B5 vitamin, 3% (w/v) sucrose, […] MES (pH 5.7), 1.2% (w/v) agar, and filter sterilized auxin herbicides 2,4-D or dicamba was added to the media at 60° C. […] The concentrations of dicmaba were 0 μM, 1.0 μM, 5.0 μM, 7.0 μM, and 10 μM. […]"}}, "data": [{"smiles": "O=C(O)COc1ccc(Cl)cc1Cl", "note": "[2,4-D, 2,4-dichlorophenoxyacetic acid]", "values": [{"measurement": "Soybean seed germination and growth", "setting": "Soybean seeds", "value": "seed germination was arrested"}, {"measurement": "Percentage of the average root length compared with 0 nM 2,4-D treatment", "setting": "[1]; Line #1, 10 nM 2,4-D", "value": 80, "unit": "%"}, {"measurement": "Percentage of the average root length compared with 0 nM 2,4-D treatment", "setting": "[1]; Line #1, 100 nM 2,4-D", "value": 43, "unit": "%"}, {"measurement": "Percentage of the average root length compared with 0 nM 2,4-D treatment", "setting": "[1]; Line #2, 10 nM 2,4-D", "value": 83, "unit": "%"}, {"measurement": "Percentage of the average root length compared with 0 nM 2,4-D treatment", "setting": "[1]; Line #2, 100 nM 2,4-D", "value": 36, "unit": "%"}, {"measurement": "Percentage of the average root length compared with 0 nM 2,4-D treatment", "setting": "[1]; Line #3, 10 nM 2,4-D", "value": 88, "unit": "%"}, {"measurement": "Percentage of the average root length compared with 0 nM 2,4-D treatment", "setting": "[1]; Line #3, 100 nM 2,4-D", "value": 63, "unit": "%"}, {"measurement": "Percentage of the average root length compared with 0 nM 2,4-D treatment", "setting": "[1]; Line #4, 10 nM 2,4-D", "value": 101, "unit": "%"}, {"measurement": "Percentage of the average root length compared with 0 nM 2,4-D treatment", "setting": "[1]; Line #4, 100 nM 2,4-D", "value": 60, "unit": "%"}, {"measurement": "Percentage of the average root length compared with 0 nM 2,4-D treatment", "setting": "[1]; Line #5, 10 nM 2,4-D", "value": 76, "unit": "%"}, {"measurement": "Percentage of the average root length compared with 0 nM 2,4-D treatment", "setting": "[1]; Line #5, 100 nM 2,4-D", "value": 50, "unit": "%"}, {"measurement": "Inhibition of root growth by 2,4-D", "setting": "[1]; transgenic line #4, 10 nM 2,4-D, result in words", "value": "completely alleviated"}]}]}
